Converted amounts (≈) assume the structure as drawn.
Legend:
[1] = tested on: Staphylococcus aureus Mu50; test: In vitro activity assay, minimum inhibitory concentration (MIC), cup-plate method; type: cell-based; details: strain Mu50, trypticase soy broth, read-out: MIC values, Staphylococcus aureus Mu50
Description: (§1) In vitro activity assay was performed according to Microbiological Identification of Antibiotics, Appendix XIA, Volume II, Chinese Pharmacopoeia 2010. Vancomycin-sensitive Staphylococcus aureus strains (Newman and Mu 50) were selected as the test strains, and trypticase soy broth was selected as the culture medium.

[2] = tested on: Staphylococcus aureus Newman; test: as above; type: cell-based; details: strain Newman, trypticase soy broth, read-out: MIC values, Staphylococcus aureus Newman
Description: as §1

physchem = details: 25 °C, water, thermodynamic from solid

Compound	MIC [1] [µg/mL]	MIC [2] [µg/mL]	solubility at 30 min (physchem) [mg/mL]
CCCCCCOC(CNC1(C)CC(OC2C(Oc3c4cc5cc3Oc3ccc(cc3Cl)[C@@H](O)[C@@H]3NC(=O)C(NC(=O)[C@@H]5NC(=O)[C@H](CC(N)=O)NC(=O)C(NC(=O)[C@@H](CC(C)C)NC)[C@H](O)c5ccc(c(Cl)c5)O4)c4ccc(O)c(c4)-c4c(O)cc(O)cc4[C@H](C(=O)O)NC3=O)OC(CO)C(O)C2O)OC(C)C1O)C(=O)O (stereo partly drawn) [Compound V32]	8 (≈ 4.93 µM)	2 (≈ 1.23 µM)	50 to 60 (≈ 30800 to 37000 µM)
CCOC(CNC1(C)CC(OC2C(Oc3c4cc5cc3Oc3ccc(cc3Cl)[C@@H](O)[C@@H]3NC(=O)C(NC(=O)C5NC(=O)C(CC(N)=O)NC(=O)[C@@H](NC(=O)[C@@H](CC(C)C)NC)C(O)c5ccc(c(Cl)c5)O4)c4ccc(O)c(c4)-c4c(O)cc(O)cc4C(C(=O)O)NC3=O)OC(CO)C(O)C2O)OC(C)C1O)C(=O)OC (stereo partly drawn) [Compound V33]	64 (≈ 40.5 µM)	16 (≈ 10.1 µM)	5 (≈ 3170 µM)
CC(C)C[C@@H](N)C(=O)N[C@@H]1C(=O)NC(CC(N)=O)C(=O)NC2C(=O)NC3C(=O)N[C@H](C(=O)NC(C(=O)O)c4cc(O)cc(O)c4-c4cc3ccc4O)[C@H](O)c3ccc(c(Cl)c3)Oc3cc2cc(c3OC2OC(CO)C(O)C(O)C2OC2CC(C)(NCC(OCc3ccccc3)C(=O)O)C(O)C(C)O2)Oc2ccc(cc2Cl)C1O (stereo partly drawn) [Compound V51]	32 (≈ 19.8 µM)	8 (≈ 4.96 µM)	20 (≈ 12400 µM)
CCCOC(CNC1(C)CC(OC2C(Oc3c4cc5cc3Oc3ccc(cc3Cl)[C@@H](O)[C@@H]3NC(=O)C(NC(=O)C5NC(=O)C(CC(N)=O)NC(=O)[C@@H](NC(=O)[C@H](N)CC(C)C)C(O)c5ccc(c(Cl)c5)O4)c4ccc(O)c(c4)-c4c(O)cc(O)cc4C(C(=O)O)NC3=O)OC(CO)C(O)C2O)OC(C)C1O)C(=O)O (stereo partly drawn) [Compound V57]	16 (≈ 10.2 µM)	4 (≈ 2.56 µM)	> 60
CCCCOC(CNC1(C)CC(OC2C(Oc3c4cc5cc3Oc3ccc(cc3Cl)[C@@H](O)[C@@H]3NC(=O)C(NC(=O)C5NC(=O)C(CC(N)=O)NC(=O)[C@@H](NC(=O)[C@H](N)CC(C)C)C(O)c5ccc(c(Cl)c5)O4)c4ccc(O)c(c4)-c4c(O)cc(O)cc4C(C(=O)O)NC3=O)OC(CO)C(O)C2O)OC(C)C1O)C(=O)O (stereo partly drawn) [Compound V58]	> 128	64 (≈ 40.5 µM)	50 to 60 (≈ 31700 to 38000 µM)
CCCCCCOC(CNC1(C)CC(OC2C(Oc3c4cc5cc3Oc3ccc(cc3Cl)[C@@H](O)[C@@H]3NC(=O)C(NC(=O)C5NC(=O)C(CC(N)=O)NC(=O)[C@@H](NC(=O)[C@H](N)CC(C)C)C(O)c5ccc(c(Cl)c5)O4)c4ccc(O)c(c4)-c4c(O)cc(O)cc4C(C(=O)O)NC3=O)OC(CO)C(O)C2O)OC(C)C1O)C(=O)OC (stereo partly drawn) [Compound V59]	8 (≈ 4.93 µM)	2 (≈ 1.23 µM)	< 10
CCCCCCOC(CNC1(C)CC(OC2C(Oc3c4cc5cc3Oc3ccc(cc3Cl)[C@@H](O)[C@@H]3NC(=O)C(NC(=O)[C@@H]5NC(=O)[C@H](CC(N)=O)NC(=O)C(NC(=O)[C@H](N)CC(C)C)[C@H](O)c5ccc(c(Cl)c5)O4)c4ccc(O)c(c4)-c4c(O)cc(O)cc4[C@H](C(=O)O)NC3=O)OC(CO)C(O)C2O)OC(C)C1O)C(=O)O (stereo partly drawn) [Compound V60]	8 (≈ 4.98 µM)	2 (≈ 1.24 µM)	> 20
CN[C@H](CC(C)C)C(=O)NC1C(=O)N[C@@H](CC(N)=O)C(=O)N[C@H]2C(=O)NC3C(=O)N[C@H](C(=O)N[C@@H](C(=O)O)c4cc(O)cc(O)c4-c4cc3ccc4O)[C@H](OC3CC(C)(N)C(O)C(C)O3)c3ccc(c(Cl)c3)Oc3cc2cc(c3OC2OC(CO)C(O)C(O)C2OC2CC(C)(NCC(OCc3ccccc3)C(=O)O)C(O)C(C)O2)Oc2ccc(cc2Cl)[C@H]1O (stereo partly drawn) [Compound V61]	8 (≈ 4.52 µM)	4 (≈ 2.26 µM)	20 (≈ 11300 µM)
CN[C@H](CC(C)C)C(=O)N[C@@H]1C(=O)NC(CC(N)=O)C(=O)NC2C(=O)NC3C(=O)N[C@H](C(=O)NC(C(=O)O)c4cc(O)cc(O)c4-c4cc3ccc4O)[C@H](OC3CC(C)(N)C(O)C(C)O3)c3ccc(c(Cl)c3)Oc3cc2cc(c3OC2OC(CO)C(O)C(O)C2OC2CC(C)(NCC(OCc3ccc(Cl)cc3)C(=O)O)C(O)C(C)O2)Oc2ccc(cc2Cl)C1O (stereo partly drawn) [Compound V62]	8 (≈ 4.43 µM)	4 (≈ 2.22 µM)	5 to 20 (≈ 2770 to 11100 µM)
CCCCCCCCCCOC(CNC1(C)CC(OC2C(Oc3c4cc5cc3Oc3ccc(cc3Cl)[C@@H](O)[C@@H]3NC(=O)C(NC(=O)C5NC(=O)C(CC(N)=O)NC(=O)[C@@H](NC(=O)[C@H](N)CC(C)C)C(O)c5ccc(c(Cl)c5)O4)c4ccc(O)c(c4)-c4c(O)cc(O)cc4C(C(=O)O)NC3=O)OC(CO)C(O)C2O)OC(C)C1O)C(=O)O (stereo partly drawn) [Compound V68]	8 (≈ 4.81 µM)	4 (≈ 2.4 µM)	5 to 10 (≈ 3010 to 6010 µM)
CCCCCCCCCCOC(CNC1(C)CC(OC2C(Oc3c4cc5cc3Oc3ccc(cc3Cl)[C@@H](OC3CC(C)(N)C(O)C(C)O3)[C@@H]3NC(=O)C(NC(=O)C5NC(=O)C(CC(N)=O)NC(=O)[C@@H](NC(=O)[C@@H](CC(C)C)NC)C(O)c5ccc(c(Cl)c5)O4)c4ccc(O)c(c4)-c4c(O)cc(O)cc4C(C(=O)O)NC3=O)OC(CO)C(O)C2O)OC(C)C1O)C(=O)O (stereo partly drawn) [Compound V69]	8 (≈ 4.39 µM)	2 (≈ 1.1 µM)	5 to 10 (≈ 2750 to 5490 µM)

Stronger by MIC [1], values ahead:

MIC [1] [µg/mL]	MIC [2] [µg/mL]	solubility at 30 min (physchem) [mg/mL]	Compound
2 (≈ 1.2 µM)	< 0.125	20 (≈ 12000 µM)	COC(=O)C(CNC1(C)CC(OC2C(Oc3c4cc5cc3Oc3ccc(cc3Cl)[C@@H](O)[C@@H]3NC(=O)C(NC(=O)C5NC(=O)C(CC(N)=O)NC(=O)[C@@H](NC(=O)[C@H](N)CC(C)C)C(O)c5ccc(c(Cl)c5)O4)c4ccc(O)c(c4)-c4c(O)cc(O)cc4C(C(=O)O)NC3=O)OC(CO)C(O)C2O)OC(C)C1O)OCc1ccc(Cl)cc1 (stereo partly drawn) [Compound V52]
2 (≈ 1.18 µM)	< 0.125	20 (≈ 11800 µM)	CC(C)C[C@@H](N)C(=O)NC1C(=O)N[C@@H](CC(N)=O)C(=O)N[C@H]2C(=O)NC3C(=O)N[C@H](C(=O)N[C@@H](C(=O)O)c4cc(O)cc(O)c4-c4cc3ccc4O)[C@H](O)c3ccc(c(Cl)c3)Oc3cc2cc(c3OC2OC(CO)C(O)C(O)C2OC2CC(C)(NCC(OCc3ccc(-c4ccccc4)cc3)C(=O)O)C(O)C(C)O2)Oc2ccc(cc2Cl)[C@H]1O (stereo partly drawn) [Compound V53]
2 (≈ 1.16 µM)	< 0.125	15 to 20 (≈ 8700 to 11600 µM)	CC(C)C[C@@H](N)C(=O)NC1C(=O)N[C@@H](CC(N)=O)C(=O)N[C@H]2C(=O)NC3C(=O)N[C@H](C(=O)N[C@@H](C(=O)O)c4cc(O)cc(O)c4-c4cc3ccc4O)[C@H](O)c3ccc(c(Cl)c3)Oc3cc2cc(c3OC2OC(CO)C(O)C(O)C2OC2CC(C)(NCC(OCc3ccc(-c4ccc(Cl)cc4)cc3)C(=O)O)C(O)C(C)O2)Oc2ccc(cc2Cl)[C@H]1O (stereo partly drawn) [Compound V54]
2 (≈ 1.15 µM)	< 0.125	3 (≈ 1730 µM)	COC(=O)C(CNC1(C)CC(OC2C(Oc3c4cc5cc3Oc3ccc(cc3Cl)[C@@H](O)[C@@H]3NC(=O)C(NC(=O)[C@@H]5NC(=O)[C@H](CC(N)=O)NC(=O)C(NC(=O)[C@H](N)CC(C)C)[C@H](O)c5ccc(c(Cl)c5)O4)c4ccc(O)c(c4)-c4c(O)cc(O)cc4[C@H](C(=O)O)NC3=O)OC(CO)C(O)C2O)OC(C)C1O)OCc1ccc(-c2ccc(Cl)cc2)cc1 (stereo partly drawn) [Compound V55]
2 (≈ 1.06 µM)	< 0.125	5 to 20 (≈ 2660 to 10600 µM)	CN[C@H](CC(C)C)C(=O)N[C@@H]1C(=O)NC(CC(N)=O)C(=O)NC2C(=O)NC3C(=O)N[C@H](C(=O)NC(C(=O)O)c4cc(O)cc(O)c4-c4cc3ccc4O)[C@H](OC3CC(C)(N)C(O)C(C)O3)c3ccc(c(Cl)c3)Oc3cc2cc(c3OC2OC(CO)C(O)C(O)C2OC2CC(C)(NCC(OCc3ccc(-c4ccc(Cl)cc4)cc3)C(=O)O)C(O)C(C)O2)Oc2ccc(cc2Cl)C1O (stereo partly drawn) [Compound V63]
2 (≈ 1.06 µM)	< 0.125	5 to 20 (≈ 2660 to 10600 µM)	CN[C@H](CC(C)C)C(=O)N[C@@H]1C(=O)NC(CC(N)=O)C(=O)NC2C(=O)NC3C(=O)N[C@H](C(=O)NC(C(=O)O)c4cc(O)cc(O)c4-c4cc3ccc4O)[C@H](OC3CC(C)(N)C(O)C(C)O3)c3ccc(c(Cl)c3)Oc3cc2cc(c3OC2OC(CO)C(O)C(O)C2OC2CC(C)(NCC(OCc3ccc(-c4ccccc4Cl)cc3)C(=O)O)C(O)C(C)O2)Oc2ccc(cc2Cl)C1O (stereo partly drawn) [Compound V64]
2 (≈ 1.06 µM)	< 0.125	5 to 20 (≈ 2660 to 10600 µM)	CN[C@H](CC(C)C)C(=O)NC1C(=O)N[C@@H](CC(N)=O)C(=O)N[C@H]2C(=O)NC3C(=O)N[C@H](C(=O)N[C@@H](C(=O)O)c4cc(O)cc(O)c4-c4cc3ccc4O)[C@H](OC3CC(C)(N)C(O)C(C)O3)c3ccc(c(Cl)c3)Oc3cc2cc(c3OC2OC(CO)C(O)C(O)C2OC2CC(C)(NCC(OCc3cccc(-c4ccc(Cl)cc4)c3)C(=O)O)C(O)C(C)O2)Oc2ccc(cc2Cl)[C@H]1O (stereo partly drawn) [Compound V65]
2 (≈ 1.07 µM)	< 0.125	5 to 20 (≈ 2680 to 10700 µM)	CC(C)C[C@@H](N)C(=O)N[C@@H]1C(=O)NC(CC(N)=O)C(=O)NC2C(=O)NC3C(=O)N[C@H](C(=O)NC(C(=O)O)c4cc(O)cc(O)c4-c4cc3ccc4O)[C@H](OC3CC(C)(N)C(O)C(C)O3)c3ccc(c(Cl)c3)Oc3cc2cc(c3OC2OC(CO)C(O)C(O)C2OC2CC(C)(NCC(OCc3ccc(-c4ccc(Cl)cc4)cc3)C(=O)O)C(O)C(C)O2)Oc2ccc(cc2Cl)C1O (stereo partly drawn) [Compound V66]
4 (≈ 2.38 µM)	2 (≈ 1.19 µM)	5 to 10 (≈ 2980 to 5960 µM)	CCCCCCCCCCOC(CNC1(C)CC(OC2C(Oc3c4cc5cc3Oc3ccc(cc3Cl)[C@@H](O)[C@@H]3NC(=O)C(NC(=O)C5NC(=O)C(CC(N)=O)NC(=O)[C@@H](NC(=O)[C@@H](CC(C)C)NC)C(O)c5ccc(c(Cl)c5)O4)c4ccc(O)c(c4)-c4c(O)cc(O)cc4C(C(=O)O)NC3=O)OC(CO)C(O)C2O)OC(C)C1O)C(=O)O (stereo partly drawn) [Compound V67]
